Marks after values point to notes of the source that are not given here.
Legend:
[1] = system: HeLa human cervical gland carcinoma cells; experiment: MTT cytotoxicity on HeLa; format: cell-based; conditions: 48 h, mean ± standard deviation, n = 3, – = Not detected
Description: (§1) The human leukemia monocyte cell line (THP-1), human lung adenocarcinoma cell line (A549), human breast cancer cells (MDA-MB231), human prostate adenocarcinoma cells (PC3), human malignant glioma cell line (U87MG), human cervical gland carcinoma cells (HeLa), human hepatocellular carcinoma cells (HEP-G2) and normal human lung fibroblast cells (CCD-34-LU) as a healthy cell line in our stock used in this study were purchased from American Type Culture Collection (ATCC). THP-1 cells were cultured in Roswell Park Memorial Institute (RPMI 1640) medium and MDA-MB231, PC3, U87 MG, HeLa, HEP-G2, and CCD-34-LU cells cultivated in Dulbecco’s Modified Eagle’s Medium/Nutrient Mixture F-12 (DMEM/F12) (Gibco, USA) medium supplemented with 10% FBS (Gibco, USA), 100U/mL of penicillin 100 µg/mL of streptomycin (Gibco, USA), and 2 mM L-glutamine (Gibco, USA).
(§2) Cytotoxicity of saponins (1–4) and their prosapogenins (2a–4a) were tested against A549, MDA-MB-231, PC-3, U87MG, HeLa, HepG-2 cancer cells and CCD34-Lu healthy cell line using MTT [3-(4,5-dimethylthiazole-2-yl)-2,5-diphenyltetrazolium bromide)] assay (Acros Organics, New Jersey, USA)[11], [23]. For this purpose, 1 × 10^5 cells/mL of all the cell lines were seeded in 96-well plates (Corning, USA) and cultivated in the at 37 °C overnight. After the incubation, the cells were incubated with different concentrations of saponins (50, 5, and 0.5 µg/mL), and doxorubicin (Sigma, USA) (20, 2, and 0.2 µg/mL) for 48 h at 37 °C. Then, the MTT was added as 20 μL (from the stock concentration of 2.5 mg/mL) to all wells and further incubated for 4 h at 37 °C. Following the incubation, the medium was removed and 150 µL DMSO was added to dissolve the formed formazan crystals. After the formazan crystals were completely dissolved, the optical density (OD) was measured at 570 nm with an UV/Vis microplate spectrophotometer (Thermo Fisher Scientific, USA). All data are the results of at least three independent experiments carried out in triplicate. Data are presented as mean ± standard error of the mean (SEM) of samples. The IC50 value was calculated using the GraphPad Prism 8 (USA) program based on the calculated percent viability values and absorbance values. The percentage of viability was determined by Eq. (1):1 %Viablecells=absorbanceoftreatedcells-absorbanceofblank/absorbanceofcontrol-absorbanceofblank×100

[2] = system: U87MG human malignant glioma cell line; experiment: MTT cytotoxicity on U87MG; format: cell-based; conditions: 48 h, mean ± standard deviation, n = 3, – = Not detected
Description: as §1, §2

[3] = system: PC-3 human prostate adenocarcinoma cells; experiment: MTT cytotoxicity on PC-3; format: cell-based; conditions: 48 h, mean ± standard deviation, n = 3, – = Not detected
Description: as §1, §2

[4] = system: MDA-MB-231 human breast cancer cells; experiment: MTT cytotoxicity on MDA-MB-231; format: cell-based; conditions: mean ± standard deviation, n = 3, – = Not detected
Description: as §1, §2

[5] = system: THP-1 originated-macrophage; experiment: MTT cytotoxicity on THP-1 originated macrophages; format: cell-based, human; conditions: mean ± standard deviation, n = 3, – = Not detected
[6] = system: HepG-2 human hepatocellular carcinoma cells; experiment: MTT cytotoxicity on HepG-2; format: cell-based; conditions: mean ± standard deviation, n = 3, – = Not detected
Description: as §1, §2

[7] = system: THP-1 derived macrophage cells; experiment: Macrophage polarization by flow cytometry (CD11b, CD80, CD163 MFI); format: cell-based, human; conditions: saponin 3 µg/mL, 24 h, PMA-differentiated THP-1, mean ± SD, n = 3
Description: To differentiate THP-1 cells into M0-THP-1, cells were seeded at an initial concentration of 1 × 10^6 cells/mL in 6-well plates (Corning, USA) and treated with 15 ng/mL phorbol 12-myristate 13—acetate (PMA, Sigma USA). Then incubate at 5% CO2, 37 °C for 48 h[24]. To evaluate the potential of saponins with/without infectious bronchitis virus (IBV) D274 antigen on macrophage polarization, THP-1 cells were treated with saponins at 3 µg/mL and then incubated for 24 h with or without 4 µL of inactivated IBV D274 antigens (final titer of 1 HA). […] Based on the results of our previous research, the saponin concentration was selected as a non-cytotoxic concentration. At the end of the incubation period, the cells were collected by trypsinization and washed three times with PBS. Following, 1 µL of PE anti-human CD80 (Biolegend, CA), FITC anti-human CD163 (Biolegend, CA), and FITC anti-human CD11b (Biolegend, CA) antibodies were added into the cells pellet and incubated for 45 min at room temperature in the dark. The cells pellets underwent two PBS washes following incubation. Finally, the cells were subsequently analyzed by flow cytometry (BD Accuri, C5). 1 × 10^4 cells were counted for each sample group using flow cytometry. All data are the results of at least three independent experiments carried out in triplicate. Data are presented as mean ± standard error of the mean (SEM) of samples. The untreated stained macrophage cells with anti-human CD80, FITC anti-human CD163, and FITC anti-human CD11b were compared with the results of treated cells to obtain from M0 polarization to M1 and M2 or both.
Figure 2 (a) Saponins without antigen treatment, (b) Saponins treated with antigen. THP-1 cells were treated with 15 ng/ml PMA and 3 µg/ml saponins and 1 HA titer of IBV D274 induced in the saponins with antigen group for 24 h incubation. The macrophage polarization was determined with flow cytometry. Each value represents the mean ± standard deviation of three independents measurements. (P < 0.05*, P < 0.01**, P < 0.001***).

[8] = system: A549 human lung adenocarcinoma cell line; experiment: MTT cytotoxicity on A549; format: cell-based; conditions: mean ± standard deviation, n = 3, – = Not detected
Description: as §1, §2

[9] = system: CCD-34Lu normal human lung fibroblast cells; experiment: MTT cytotoxicity on CCD-34Lu healthy cells; format: cell-based; conditions: 48 h, mean ± standard deviation, n = 3, – = Not detected
Description: as §1, §2

[10] = with inactivated IBV D274 antigen (1 HA)

## C[C@@H]1O[C@@H](O[C@H]2[C@H](O[C@H]3CC[C@@]4(C)C(CC[C@]5(C)C4CC=C4C6CC(C)(C)CC[C@]6(C(=O)O[C@@H]6O[C@H](CO[C@@H]7O[C@H](CO)[C@@H](O)[C@H](O)[C@H]7O)[C@@H](O)[C@H](O)[C@H]6O)CC[C@]45C)[C@]3(C)CO)O[C@H](CO)[C@H](O)[C@@H]2O)[C@H](O)[C@H](O)[C@H]1O (stereo partly drawn) [Compound 4, 3-O-α-L-rhamnopyranosyl-(1 → 2)-β-D-galactopyranosyl-hederagenin-28-O-β-D-glucopyranosyl-(1 → 6)-β-D-glucopyranosyl ester]
[1]; Homo sapiens, HeLa
  IC50: > 45.2 µM
[2]; Homo sapiens, U-87 MG
  IC50: > 45.2 µM
[3]; Homo sapiens
  IC50: > 45.2 µM
[4]; Homo sapiens, MDA-MB-231, 48 h
  IC50: > 45.2 µM
[5]; Homo sapiens, THP-1, 48 h
  IC50: > 45.2 µM
[6]; Homo sapiens, HepG2, 48 h
  IC50: > 45.2 µM
[7]; [10]
  MFI of CD 11b (M0 marker): 32,925.30 ± 947.75
  MFI of CD80 (M1 marker): 4593.32 ± 951.60
  MFI of CD163 (M2 marker): 8203.00 ± 246.09**
[7]; without antigen
  MFI of CD 11b (M0 marker): 27,324.70 ± 2398.39
  MFI of CD80 (M1 marker): 4,380.00 ± 169.38
  MFI of CD163 (M2 marker): 6,755.64 ± 206.67**
[8]; Homo sapiens, A549, 48 h
  IC50: > 45.2 µM
[9]; Homo sapiens, Fibroblast
  IC50: > 45.2 µM

## C[C@@H]1O[C@@H](O[C@H]2[C@H](O[C@H]3CC[C@@]4(C)[C@@H](CC[C@]5(C)[C@@H]4CC=C4[C@@H]6CC(C)(C)CC[C@]6(C(=O)O)CC[C@]45C)[C@]3(C)CO)O[C@H](CO)[C@H](O)[C@@H]2O)[C@H](O)[C@H](O)[C@H]1O [Compound 4a, 3-O-α-L-rhamopyranosyl-(1 → 2)-β-D-galactopyranosyl hederagenin]
[1]
  IC50: 16.3 ± 4.75 µM
[2]
  IC50: > 64 µM
[3]
  IC50: > 64 µM
[4]; 48 h
  IC50: 8.43 ± 0.15 µM
[5]; 48 h
  IC50: 35.7 ± 4.9 µM
[6]; 48 h
  IC50: > 64 µM
[7]; [10]
  MFI of CD 11b (M0 marker): 30,124.70 ± 913.74
  MFI of CD80 (M1 marker): 4604.40 ± 128.49
[7]; without antigen
  MFI of CD 11b (M0 marker): 30,031.76 ± 1486.58
  MFI of CD80 (M1 marker): 4,552.00 ± 947.76
[8]; 48 h
  IC50: 8.13 ± 0.01 µM
[9]
  IC50: > 64 µM

— PMC10560666, “Four new triterpene saponins from Cephalaria speciosa and their potent cytotoxic and immunomodulatory activities” (Scientific Reports, 2023)
